This note sets out measurements from US20020082262A1, “Substituted bicyclic compounds for treating multidrug resistance” (priority 2000, published 2002).

The assay relates to NIH-MDR1-G185 cells. The assay is described as follows: Fluorescent Substrate Accumulation Assay (BODIPY-FL Taxol accumulation). Format: cell-based. The following applies: MDR modulator 10 micromolar, BODIPY-FL Taxol 500 nM, 40 min at 37° C.; fluorescence in NIH-MDR1-G185 cells in presence / absence of modulator. The protocol: Fluorescent Substrate Accumulation Assay NIH-MDR1-G185 cells (obtained from M. Gottesman, NIH) were harvested and resuspended in RPMI-1640 containing L-glutamine, 10% Cosmic Calf Serum and penicillin-streptomycin. Cell suspension aliquots of 175 microliters (1×10^5 cells) were added to individual wells of a 96 well microtiter plate and preincubated for 15 min at 37° C. with 20 microliters MDR modulator diluted in cell culture media to give a final concentration of 10 micromolar. Control wells received no modulating agent. BODIPY-FL Taxol (Molecular Probes, Eugene, Oreg.) was added to each well in 10 microliter aliquots to give a final concentration of 500 nM and cells were incubated for 40 min at 37° C. Cells were centrifuged at 100×g for 5 min at 4° C. and the cell pellet washed with 200 microliters cold PBS to remove fluorescent medium from wells. Cells were centrifuged once more, media removed, and cells resuspended in 200 microliters cold PBS. Fluorescence accumulation was measured in a fluorescence plate reader fitted with an excitation filter of 485 nm and an emission filter of 538 nm. BODIPY-FL taxol accumulation in the cells was calculated as follows: Accumulation Index=(fluorescence in NIH-MDR1-G185 cells in the presence of modulator)/(fluorescence in NIH-MDR1-G185 cells in absence of modulator)
On to “1-[5-Phenyl-2-(3-phenyl-propyl)-pentanoic acid {4-[2-hydroxy-3-(quinolin-5-yloxy)-propyl]-piperazin-4-yl}-amide]piperidine [Example 10]”, for which the “Accumulation Index” value is on record as 8.

With `O=C(C(CCCc1ccccc1)CCCc1ccccc1)N1CCN(C2CCN(C[C@@H](O)COc3cccc4ncccc34)CC2)CC1` [Example7, 4-[5-phenyl-2-(3-phenyl-propyl)-pentanoic acid {1-[2-hydroxy-3-(quinolin-5-yloxy)-propyl]-piperazin-4-yl}-amide]piperidine], the “Accumulation Index” value is listed as 9.

In the case of `O=C(C(CCCc1ccccc1)CCCc1ccccc1)N1CCC(NC2CCN(C[C@@H](O)COc3cccc4ncccc34)CC2)CC1` [Example 15], the “Accumulation Index” value is on record as 6.

For the compound `O=C(CN1CCN(C[C@@H](O)COc2cccc3ncccc23)CC1)NC[C@H]1CC[C@H](C(=O)NC(CCCc2ccccc2)CCCc2ccccc2)CC1` [Example 22, N-{1-[2-(R)-hydroxy-3-(quinolin-5-yloxy)-propyl]-piperazine-4-acetyl}-trans-4-aminomethyl-1-cyclohexanecarboxylic acid [4-phenyl-1-(3-phenyl-propyl)-butyl]-amide], the “Accumulation Index” value is recorded as 7.

As for `O=C(CN1CCN(C[C@@H](O)COc2cccc3ncccc23)CC1)N[C@@H](Cc1cccnc1)C(=O)N1CCC(C(=O)NC(CCCc2ccccc2)CCCc2ccccc2)CC1` [Example 27, 1-(N-{1-[2-(R)-hydroxy-3-(quinolin-5-yloxy)-propyl]-piperazine-4-acetyl}-[3-(3-pyridyl)-alanyl])-piperidine-4-carboxylic acid [4-phenyl-1(3-phenyl-propyl)-butyl]-amide], the “Accumulation Index” value is 8.
